According to ChEMBL document CHEMBL3832761, “MMV Pathogen Box Bioactivity Data” (2017):
Values after ≈ are worked out from the molar mass of the structure shown.

Tests used:
Format in all cases: functional
[1] = system: Mycobacterium tuberculosis; experiment: AntiMycobacterium tuberculosis activity 1-week 7H9/glucose/BSA/Tx MIC (uM); details: 168 h
[2] = system: Mycobacterium tuberculosis; experiment: AntiMycobacterium tuberculosis activity day 21 MIC99 in 7H9/2.5mM butyrate/pH6/0.1mM nitrite MIC99 (uM); details: 504 h
[3] = system: Mycobacterium tuberculosis; experiment: AntiMycobacterium tuberculosis activity day 21 in 7H9/2.5mM butyrate/pH6/0.1mM nitrite MIC90 (uM); details: 504 h
[4] = system: Mycobacterium tuberculosis; experiment: AntiMycobacterium tuberculosis activity Replicating form: Average MIC90 (uM)
[5] = system: Mycobacterium tuberculosis; experiment: AntiMycobacterium tuberculosis activity 1-week GAST/Fe MIC (uM); details: 168 h
[6] = system: Mycobacterium tuberculosis; experiment: AntiMycobacterium tuberculosis activity 1-week 7H9/DPPC/cholesterol/BSA/Tx MIC (uM); details: 168 h
[7] = system: Mycobacterium tuberculosis; experiment: AntiMycobacterium tuberculosis activity 1-week 7H9/ADC/Tw MIC (uM); details: 168 h
[8] = system: Mycobacterium tuberculosis; experiment: AntiMycobacterium tuberculosis activity 2-week 7H9/DPPC/cholesterol/BSA/Tx MIC (uM); details: 336 h
[9] = system: Mycobacterium tuberculosis; experiment: AntiMycobacterium tuberculosis activity 2-week GAST/Fe MIC (uM); details: 336 h
[10] = system: Mycobacterium tuberculosis; experiment: AntiMycobacterium tuberculosis activity 2-week 7H9/ADC/Tw MIC (uM); details: 336 h
[11] = system: Mycobacterium tuberculosis; experiment: AntiMycobacterium tuberculosis activity 2-week Alamar Blue 7H9/ADC/Tw MIC (uM); details: 336 h
[12] = system: Mycobacterium tuberculosis; experiment: (§1) AntiMycobacterium tuberculosis activity day 10 in 7H9/2.5mM butyrate/pH6/0.1mM nitrite MIC90 (uM); details: 240 h
[13] = system: Mycobacterium tuberculosis; experiment: AntiMycobacterium tuberculosis activity 2-week 7H9/glucose/BSA/Tx MIC (uM); details: 336 h
HepG2 = experiment: HepG2 CC50 (uM) Cytotoxicity; details: Homo sapiens
[14] = system: Mycobacterium tuberculosis; experiment: AntiMycobacterium tuberculosis activity 2-week Alamar Blue 7H9/cholesterol/BSA/Tx MIC (uM); details: 336 h
[15] = system: Mycobacterium tuberculosis; experiment: AntiMycobacterium tuberculosis activity Non-Replicating form: Average MIC90 (uM)
[16] = system: Mycobacterium tuberculosis; experiment: AntiMycobacterium tuberculosis activity 1-week 7H9/cholesterol/BSA/Tx MIC (uM); details: 168 h
[17] = system: Mycobacterium tuberculosis; experiment: as §1; details: 240 h; remark: listed apart in the source

SMILES	MIC [1]	MIC [2]	MIC90 [3]	MIC90 [4]	MIC [5]	MIC [6]	MIC [7]	MIC [8]	MIC [9]	MIC [10]	MIC [11]	MIC90 [12]	MIC [13]	CC50 (HepG2)	MIC [14]	MIC90 [15]	MIC [16]	MIC90 [17]
COc1ccc(Cn2cnc3c(-c4ccco4)nc(Cl)nc32)cc1	> 50 µM	> 50 µM	> 50 µM	> 100 µM	0.78 µM (≈ 0.266 µg/mL)	4.7 µM (≈ 1.6 µg/mL)	> 50 µM	> 50 µM	1.56 µM (≈ 0.532 µg/mL)	> 50 µM	19 µM (≈ 6.47 µg/mL)	> 50 µM	> 50 µM	> 100 µM	3.13 µM (≈ 1.07 µg/mL)	8.43 µM (≈ 2.87 µg/mL)	6.25 µM (≈ 2.13 µg/mL)	50 µM (≈ 17 µg/mL)
NC(=O)c1cc(-c2ccsc2)ccc1OCCOc1ccccc1	> 50 µM	> 50 µM	> 50 µM	> 100 µM	0.39 µM (≈ 0.132 µg/mL)	12.5 µM (≈ 4.24 µg/mL)	> 50 µM	> 50 µM	0.6 µM (≈ 0.204 µg/mL)	> 50 µM	19 µM (≈ 6.45 µg/mL)	> 50 µM	> 50 µM	> 100 µM	6.25 µM (≈ 2.12 µg/mL)	3.96 µM (≈ 1.34 µg/mL)	> 50 µM	> 50 µM
Cn1ccnc1CNCCS(=O)(=O)c1cccc(Nc2ccc(-c3cccc(F)c3)cn2)c1	19 µM (≈ 8.85 µg/mL)	> 50 µM	> 50 µM	> 100 µM	25 µM (≈ 11.6 µg/mL)	12.5 µM (≈ 5.82 µg/mL)	50 µM (≈ 23.3 µg/mL)	≥ 50 µM	25 µM (≈ 11.6 µg/mL)	> 50 µM	> 50 µM	> 50 µM	> 50 µM	46.1 µM	37 µM (≈ 17.2 µg/mL)	> 100 µM	25 µM (≈ 11.6 µg/mL)	> 50 µM
c1cncc(NCc2ccc(-c3cc4ccncc4cc3OC3CCNCC3)s2)c1	≥ 50 µM	> 50 µM	> 50 µM	11.8 µM (≈ 4.92 µg/mL)	3.13 µM (≈ 1.3 µg/mL)	50 µM (≈ 20.8 µg/mL)	50 µM (≈ 20.8 µg/mL)	50 µM (≈ 20.8 µg/mL)	4.7 µM (≈ 1.96 µg/mL)	37 µM (≈ 15.4 µg/mL)	12.5 µM (≈ 5.21 µg/mL)	> 50 µM	≥ 50 µM	8 µM	37 µM (≈ 15.4 µg/mL)	58.7 µM (≈ 24.5 µg/mL)	50 µM (≈ 20.8 µg/mL)	> 50 µM
C[C@]1(COc2ccc(N3CCC(Oc4ccc(OC(F)(F)F)cc4)CC3)cc2)Cn2cc([N+](=O)[O-])nc2O1	0.2 µM (≈ 0.107 µg/mL)	> 50 µM	12.5 µM (≈ 6.68 µg/mL)	0.08 µM (≈ 0.0428 µg/mL)	0.1 µM (≈ 0.0534 µg/mL)	< 0.02 µM	0.07 µM (≈ 0.0374 µg/mL)	0.1 µM (≈ 0.0534 µg/mL)	0.15 µM (≈ 0.0802 µg/mL)	0.15 µM (≈ 0.0802 µg/mL)	0.15 µM (≈ 0.0802 µg/mL)	> 50 µM	0.05 µM (≈ 0.0267 µg/mL)	72.5 µM	0.6 µM (≈ 0.321 µg/mL)	0.2 µM (≈ 0.107 µg/mL)	0.05 µM (≈ 0.0267 µg/mL)	0.39 µM (≈ 0.208 µg/mL)
CCOC(=O)NC(=O)c1ccsc1NC(=O)c1nc2ccccc2s1	0.2 µM (≈ 0.0751 µg/mL)	0.09 µM (≈ 0.0338 µg/mL)	≤ 0.04 µM	0.69 µM (≈ 0.259 µg/mL)	< 0.02 µM	0.1 µM (≈ 0.0375 µg/mL)	0.2 µM (≈ 0.0751 µg/mL)	0.1 µM (≈ 0.0375 µg/mL)	< 0.02 µM	0.15 µM (≈ 0.0563 µg/mL)	0.15 µM (≈ 0.0563 µg/mL)	0.19 µM (≈ 0.0713 µg/mL)	0.2 µM (≈ 0.0751 µg/mL)	47 µM	0.1 µM (≈ 0.0375 µg/mL)	0.34 µM (≈ 0.128 µg/mL)	0.05 µM (≈ 0.0188 µg/mL)	≤ 0.04 µM
CC(C)n1ncc2c(C(=O)NCC(c3cccs3)N3CCOCC3)cc(-c3ccccc3)nc21 (configuration not stated)	1.2 µM (≈ 0.571 µg/mL)	1.5 µM (≈ 0.713 µg/mL)	3.12 µM (≈ 1.48 µg/mL)	0.61 µM (≈ 0.29 µg/mL)	0.3 µM (≈ 0.143 µg/mL)	0.78 µM (≈ 0.371 µg/mL)	0.78 µM (≈ 0.371 µg/mL)	0.78 µM (≈ 0.371 µg/mL)	0.3 µM (≈ 0.143 µg/mL)	1.2 µM (≈ 0.571 µg/mL)	1.2 µM (≈ 0.571 µg/mL)	1.5 µM (≈ 0.713 µg/mL)	1.2 µM (≈ 0.571 µg/mL)	58 µM	1.56 µM (≈ 0.742 µg/mL)	1.28 µM (≈ 0.609 µg/mL)	0.6 µM (≈ 0.285 µg/mL)	3.12 µM (≈ 1.48 µg/mL)
CC(Oc1ccccc1)C(=O)Nc1nc(-c2ccccn2)cs1 (configuration not stated)	12.5 µM (≈ 4.07 µg/mL)	6.25 µM (≈ 2.03 µg/mL)	12.5 µM (≈ 4.07 µg/mL)	91.3 µM (≈ 29.7 µg/mL)	1.56 µM (≈ 0.508 µg/mL)	25 µM (≈ 8.13 µg/mL)	12.5 µM (≈ 4.07 µg/mL)	> 50 µM	2.3 µM (≈ 0.748 µg/mL)	12.5 µM (≈ 4.07 µg/mL)	12.5 µM (≈ 4.07 µg/mL)	6.25 µM (≈ 2.03 µg/mL)	50 µM (≈ 16.3 µg/mL)	29.3 µM	19 µM (≈ 6.18 µg/mL)	41.7 µM (≈ 13.6 µg/mL)	9.4 µM (≈ 3.06 µg/mL)	12.5 µM (≈ 4.07 µg/mL)
O=C(NC1=NCCS1)c1sc2cc(F)ccc2c1Cl	> 50 µM	12.5 µM (≈ 3.93 µg/mL)	12.5 µM (≈ 3.93 µg/mL)	> 100 µM	0.6 µM (≈ 0.189 µg/mL)	6.25 µM (≈ 1.97 µg/mL)	> 50 µM	> 50 µM	1.2 µM (≈ 0.378 µg/mL)	> 50 µM	9.4 µM (≈ 2.96 µg/mL)	3.12 µM (≈ 0.982 µg/mL)	> 50 µM	> 100 µM	3.13 µM (≈ 0.985 µg/mL)	39.3 µM (≈ 12.4 µg/mL)	3.13 µM (≈ 0.985 µg/mL)	3.12 µM (≈ 0.982 µg/mL)
